The text below walks through data of ChEMBL document CHEMBL6103583, “Purified Monascus Pigments: Biological Activities and Mechanisms of Action” (J Nat Prod, 2025).

≈ marks a conversion by molar mass, not a printed value.

The subject of test [1] is WiDr. Kind of test: Antiproliferative activity against human WiDr cells assessed as reduction in cell growth incubated for 3 days by MTT assay. It is filed as functional, cell-based. The note with it: 72 h. (In general: Tetrazolium dyes change colour on reduction, which living cells bring about.)
For test [2], the system named is HEp-2. Kind of test: Antiproliferative activity against human HEp-2 cells assessed as reduction in cell growth incubated for 3 days by MTT assay. The test is classed as functional, cell-based. The settings on record: HEp-2, 72 h.
The test system of test [3] is HEp-2. Kind of test: Antiproliferative activity against human HEp-2 cells assessed as reduction in cell viability incubated for 72 hrs by MTT assay. It is filed as functional, cell-based. The note with it: HEp-2, 72 h.
Test [4] relates to WiDr. The experiment in a line: Antiproliferative activity against human WiDr cells assessed as reduction in cell viability incubated for 72 hrs by MTT assay. The test is classed as functional, cell-based.
In test [5] the test system is RAW264.7. Kind of test: Antiinflammatory activity against mouse RAW264.7 cells assessed as inhibition of LPS-NO production incubated for 24 hrs by Griess reagent based assay. The test is classed as functional, cell-based. The note with it: RAW264.7, 24 h.
The test system of the next test is LNCaP. The experiment in a line: Antiproliferative activity against human LNCaP cells assessed as reduction in cell viability incubated for 48 hrs by MTT assay. The test is classed as functional, cell-based.
The subject of another test is PC-3. The experiment in a line: Antiproliferative activity against human PC-3 cells assessed as reduction in cell viability incubated for 48 hrs by MTT assay. It is filed as functional, cell-based. The settings on record: PC-3, 48 h.
For test [6], the system named is RAW264.7. Kind of test: Antiinflammatory activity against mouse RAW264.7 cells assessed as inhibition of LPS-NO production by Griess reagent based assay. It is filed as functional, cell-based.
The next test has as its system Klebsiella aerogenes. The experiment in a line: Antibacterial activity against Enterobacter aerogenes KCCM 12177 assessed as reduction in bacterial growth incubated for 12 hrs by broth micro-dilution method. It is filed as functional. (In general: Dilution methods test growth across graded concentrations, often in twofold steps.)
The test system of test [7] is Staphylococcus aureus. The experiment in a line: Antibacterial activity against Staphylococcus aureus KCCM 11817 assessed as reduction in bacterial growth incubated for 12 hrs by broth micro-dilution method. The test is classed as functional.
Test [8] relates to Staphylococcus aureus. Kind of test: Antibacterial activity against Staphylococcus aureus […] assessed as reduction in bacterial growth incubated for 12 hrs by broth micro-dilution method. The test is classed as functional.
The test system of another test is Bacillus subtilis. The experiment in a line: Antibacterial activity against Bacillus subtilis KCCM 11316 assessed as reduction in bacterial growth incubated for 12 hrs by broth micro-dilution method. It is filed as functional.
The test system of another test is Enterococcus faecalis. Kind of test: Antibacterial activity against Enterococcus faecalis KCCM 11814 assessed as reduction in bacterial growth incubated for 12 hrs by broth micro-dilution method. The test is classed as functional.
Test [9] deals with Escherichia coli. Kind of test: Antibacterial activity against Escherichia coli KCCM 11234 assessed as reduction in bacterial growth incubated for 12 hrs by broth micro-dilution method. It is filed as functional.
The next test has as its system Haemophilus influenzae. Kind of test: Antibacterial activity against Haemophilus influenzae KCCM 11903 assessed as reduction in bacterial growth incubated for 12 hrs by broth micro-dilution method. The test is classed as functional.
In test [10] the test system is Escherichia coli. Kind of test: Antibacterial activity against Escherichia coli KCCM 11234 assessed as reduction in bacterial growth incubated. It is filed as functional.
In the next test the test system is Proteus vulgaris. Kind of test: Antibacterial activity against Proteus vulgaris KCCM 11906 assessed as reduction in bacterial growth incubated for 12 hrs by broth micro-dilution method. It is filed as functional.
A further test deals with Pseudomonas aeruginosa. The experiment in a line: Antibacterial activity against Pseudomonas aeruginosa KCCM 11328 assessed as reduction in bacterial growth incubated for 12 hrs by micro-dilution method. It is filed as functional.
A short description of test [11]: Antibacterial activity against Salmonella choleraesuis KCCM 11806 assessed as reduction in bacterial growth. It is filed as functional, Salmonella enterica subsp. enterica serovar Choleraesuis. The note with it: Salmonella enterica.
A further test has as its system Salmonella typhimurium. The experiment in a line: Antibacterial activity against Salmonella Typhimurium KCCM 11806 assessed as reduction in bacterial growth incubated for 12 hrs by micro-dilution method. The settings on record: Salmonella enterica. It is filed as functional, Salmonella enterica subsp. enterica serovar Typhimurium.
The next test relates to Shigella sonnei. Kind of test: Antibacterial activity against Shigella sonnei KCCM 40253 assessed as reduction in bacterial growth incubated for 12 hrs by micro-dilution method. The test is classed as functional.
The test system of another test is Aspergillus niger. Kind of test: Antifungal activity against Aspergillus niger KCCM 11239 assessed as reduction in […] incubated for 12 hrs by micro-dilution method. It is filed as functional.
The subject of the next test is Candida albicans. Kind of test: Antifungal activity against Candida albicans KCCM 10231 assessed as reduction in […] incubated for 12 hrs by micro-dilution method. The test is classed as functional.
A further test has as its system Penicillium citrinum. The experiment in a line: Antifungal activity against Penicillium citrinum KCCM 11663 assessed as reduction in […] incubated for 12 hrs by micro-dilution method. It is filed as functional.
The next test has as its system Penicillium digitatum. The experiment in a line: Antifungal activity against Penicillium digitatum KCCM 60140 assessed as reduction in […] incubated for 12 hrs by micro-dilution method. The test is classed as functional.
Test [12] has as its system Escherichia coli. The experiment in a line: Antibacterial activity against Escherichia coli assessed as reduction in bacterial growth by broth microdilution method. It is filed as functional.

As usually defined, the IC50 is the point on the concentration scale where inhibition reaches its midpoint. Regarding `CCCCCC(=O)C[C@@H]1CC(CC(=O)CCC)=C(C)C(=O)[C@]1(C)O`, the IC50 in the test with WiDr [1] worked out at 142 µM; with HEp-2 [2] it was 124 µM.
Turning to `C/C=C/C1=CC2=CC3=C(C(=O)CCCCCCC)C(=O)O[C@@]3(C)[C@@H](O)C2=CO1`, the IC50 came out at 9.8 µM in the test with HEp-2 [3], 8.6 µM with WiDr [4] and 0.99 µM with RAW264.7 [5].
As for `C/C=C/c1cc2c(cn1)C(=O)[C@](C)(O)[C@@H](CC(=O)CCCCCCC)C2`, the IC50 with RAW264.7 [5] was 74.7 µM.
In the case of `C/C=C/C1=CC2=C(CO1)C(=O)[C@]1(C)OC(=O)[C@H](C(O)CCCCC)[C@H]1C2` (some centres not stated), the IC50 is 45 µM in the test with LNCaP and 47 µM in the test on PC-3.
Consider `C/C=C/C1=CC2=C(CO1)C(=O)[C@](C)(O)[C@@H](CC(=O)CCCCCCC)C2`, for which the IC50 in the test on RAW264.7 [6] was 19.7 µM; in the test on WiDr [1], 55.8 µM; in the test with HEp-2 [2] it was 21 µM.
For the compound `C/C=C/C1=CC2=CC3=C(C(=O)CCCCC)C(=O)OC3(C)C(=O)C2=CN1CCO` (configuration not stated), in the test with RAW264.7 [5], the IC50 was found to be 27.5 µM.
Consider `C/C=C/C1=CC2=CC3=C(C(=O)CCCCCCC)C(=O)O[C@@]3(C)C(=O)C2=CO1`, for which the IC50 was 55.9 µM with HEp-2 [3], 54.1 µM in the test with WiDr [4] and above 39.2 µM with RAW264.7 [5].
For `N[C@@H](CS)C(=O)O` [CYSTEINE], the MIC worked out at 8 µg/mL (≈ 66 µM) with Klebsiella aerogenes; 16 µg/mL (≈ 132 µM) in the test on Staphylococcus aureus [7]; 16 µg/mL (≈ 132 µM) with Staphylococcus aureus [8]; 32 µg/mL (≈ 264 µM) in the test with Bacillus subtilis; 4 µg/mL (≈ 33 µM) in the test on Enterococcus faecalis; 64 µg/mL (≈ 528 µM) in the test on Escherichia coli [9]. In addition, the MIC was 8 µg/mL (≈ 66 µM) in the test on Haemophilus influenzae; 64 µg/mL (≈ 528 µM) in the test with Escherichia coli [10]; 8 µg/mL (≈ 66 µM) in the test on Proteus vulgaris; 16 µg/mL (≈ 132 µM) with Pseudomonas aeruginosa; 16 µg/mL (≈ 132 µM) in test [11]; 8 µg/mL (≈ 66 µM) with Salmonella typhimurium. In addition, the MIC in the test on Shigella sonnei is 16 µg/mL (≈ 132 µM); in the test with Aspergillus niger, 8 µg/mL (≈ 66 µM); with Candida albicans, 16 µg/mL (≈ 132 µM); in the test on Penicillium citrinum, 32 µg/mL (≈ 264 µM); in the test with Penicillium digitatum it was 32 µg/mL (≈ 264 µM).
With `N[C@H](Cc1ccccc1)C(=O)O` [D-PHENYLALANINE], the MIC in the test on Klebsiella aerogenes was 16 µg/mL (≈ 96.9 µM); with Staphylococcus aureus [7], 16 µg/mL (≈ 96.9 µM); in the test on Staphylococcus aureus [8], 8 µg/mL (≈ 48.4 µM); in the test on Bacillus subtilis, 8 µg/mL (≈ 48.4 µM); in the test on Enterococcus faecalis, 8 µg/mL (≈ 48.4 µM); in the test with Escherichia coli [9], 8 µg/mL (≈ 48.4 µM). In addition, the MIC in the test on Haemophilus influenzae came out at 16 µg/mL (≈ 96.9 µM); in the test with Escherichia coli [10], 8 µg/mL (≈ 48.4 µM); with Proteus vulgaris, 16 µg/mL (≈ 96.9 µM); with Pseudomonas aeruginosa, 16 µg/mL (≈ 96.9 µM); in test [11] it was 4 µg/mL (≈ 24.2 µM); in the test with Salmonella typhimurium, 8 µg/mL (≈ 48.4 µM). For the same compound, the MIC amounted to 16 µg/mL (≈ 96.9 µM) in the test with Shigella sonnei; 8 µg/mL (≈ 48.4 µM) in the test on Aspergillus niger; 8 µg/mL (≈ 48.4 µM) with Candida albicans; 8 µg/mL (≈ 48.4 µM) in the test with Penicillium citrinum; 16 µg/mL (≈ 96.9 µM) in the test on Penicillium digitatum.
`N[C@@H](Cc1ccccc1)C(=O)O` [PHENYLALANINE]: the MIC in the test with Klebsiella aerogenes came to 16 µg/mL (≈ 96.9 µM); in the test on Staphylococcus aureus [7], 16 µg/mL (≈ 96.9 µM); with Staphylococcus aureus [8], 8 µg/mL (≈ 48.4 µM); in the test with Bacillus subtilis, 8 µg/mL (≈ 48.4 µM); in the test on Enterococcus faecalis it was 4 µg/mL (≈ 24.2 µM); in the test on Escherichia coli [12], 16 µg/mL (≈ 96.9 µM). Further, the MIC with Escherichia coli [9] was determined as 8 µg/mL (≈ 48.4 µM); with Haemophilus influenzae it was 16 µg/mL (≈ 96.9 µM); in the test with Escherichia coli [10], 8 µg/mL (≈ 48.4 µM); in the test on Proteus vulgaris, 16 µg/mL (≈ 96.9 µM); in the test on Pseudomonas aeruginosa, 8 µg/mL (≈ 48.4 µM); in [11], 8 µg/mL (≈ 48.4 µM). For the same compound, the MIC with Salmonella typhimurium turned out to be 4 µg/mL (≈ 24.2 µM); in the test with Shigella sonnei it was 16 µg/mL (≈ 96.9 µM); in the test on Aspergillus niger, 8 µg/mL (≈ 48.4 µM); with Candida albicans, 8 µg/mL (≈ 48.4 µM); with Penicillium citrinum it was 8 µg/mL (≈ 48.4 µM); with Penicillium digitatum, 16 µg/mL (≈ 96.9 µM).
In the case of `N[C@@H](Cc1ccc(O)cc1)C(=O)O` [TYROSINE], the MIC in the test on Klebsiella aerogenes is 4 µg/mL (≈ 22.1 µM); in the test with Staphylococcus aureus [7], 8 µg/mL (≈ 44.2 µM); in the test with Staphylococcus aureus [8], 8 µg/mL (≈ 44.2 µM); with Bacillus subtilis, 4 µg/mL (≈ 22.1 µM); in the test on Enterococcus faecalis it was 8 µg/mL (≈ 44.2 µM); in the test with Haemophilus influenzae, 32 µg/mL (≈ 177 µM). Also, the MIC in the test on Proteus vulgaris came to 32 µg/mL (≈ 177 µM); with Pseudomonas aeruginosa, 8 µg/mL (≈ 44.2 µM); in test [11] it was 8 µg/mL (≈ 44.2 µM); in the test with Salmonella typhimurium it was 16 µg/mL (≈ 88.3 µM); in the test on Shigella sonnei, 32 µg/mL (≈ 177 µM); in the test with Aspergillus niger, 4 µg/mL (≈ 22.1 µM). For the same compound, the MIC was 8 µg/mL (≈ 44.2 µM) in the test on Candida albicans, 8 µg/mL (≈ 44.2 µM) in the test with Penicillium citrinum and 32 µg/mL (≈ 177 µM) with Penicillium digitatum.
